US11470844B2, “Vespidae wasp repellent” (KINP CO., LTD, priority 2015, dated 2022)

Experiments:
Vespa mandarinia worker [1] = assay: Spray on Vespa mandarinia worker collecting sawthorn oak sap; format: in vivo, Vespa mandarinia japonica Radoszkowski; details: 10 workers; for behavior of workers after spraying: immediately started flapping, same time or a few seconds later; for Number of worker Effective / Number of worker No response: sprayed one time, observed up to 1 minute
Procedure: The experiment was conducted on a Vespa mandarinia japonica Radoszkowski worker which flew to a sawthorn oak tree bleeding sap and which collected the sap in Kagawa Prefecture Kinbuchi Forest Park in Takamatsu City Kagawa Prefecture from June to October, 2014 and from June to July, 2015.
Specifically, 100 mL of distilled water was enclosed in a plastic sprayer having a volume of 200 mL to be used as a control sprayer, and 100 mL of benzyl alcohol was enclosed in the same material and the same volume sprayer to be used as a test liquid sprayer. First, distilled water was sprayed one time to one Vespa mandarinia worker which was collecting sap at a sap bleeding part of a trunk of a sawthorn oak tree by using a control sprayer. […] Then, benzyl alcohol was sprayed one time by using a test liquid sprayer. Next, the workers were observed up to 1 minute. With respect to 2-phenylethanol, 3-phenylpropanol, 1-phenyl-2-prpanol and benzyl acetate, the spray test to a Vespa mandarinia worker collecting a sawthorn oak sap was conducted in the same condition.

Vespa mandarinia worker [2] = assay: Black ball nest disturbance, Experiment 2 (new black ball, 30 s vibration); format: in vivo; details: for repellent effect: in vivo
Excerpt: In the above-described Experiment 1, it was observed that vibrating the black ball in contact with the nest entrance more strongly induces the attack behavior of the worker rather than vibrating the black ball in the air away from the nest. Accordingly, the attack situation of the worker was investigated by vibrating the black ball in contact with the entrance of the same Vespidae wasp nest used in the above-described Experiment 1 for 30 seconds on Oct. 31, 2014. Specifically, the attack situation of the worker was observed similarly to the above-described Experiment 1 except for using a new black ball without using the black ball on which alarm pheromone was adsorbed even in the case of the test liquid and using 2-phenylethanol or benzyl alcohol as the test liquid by vibrating the black ball in contact with the entrance of the same nest for 30 seconds.
As a result, in the case of the black ball on which distilled water was sprayed, it was difficult to count the total number of the workers which flew to and alighted on the black ball for attack, since the black ball was continued to be attacked by the workers for 150 seconds from the end of the vibration almost without interruption and the number of attacking worker was clearly larger in comparison with the case of the above-described Experiment 1. The inventors therefore counted the number of the worker which could be observed on the hemispherical surface of the black ball from the video image at intervals of 30 seconds from the end of the disturbance. In addition, a picture of the video footage 145 seconds after the end of the nest entrance disturbance is shown as FIG. 1. FIG. 1A is an image of the case where distilled water was used, FIG. 1B is an image of the case where 2-phenylethanol was used, and FIG. 1C is an image of the case where benzyl alcohol was used.

[3] = system: Vespa simillima xanthoptera worker; assay: Black ball nest disturbance, Experiment 2; format: in vivo; details: for number of worker on black ball hemispherical surface: new black ball; for repellent effect and action to suppress the aggression: in vivo
Procedure: A similar experiment to the above-described Example 2(2) was conducted against the same Vespa simillima xanthoptera nest of the above-described Experiment 1 on Oct. 31, 2014. The number of worker on the black spherical hemispherical surface counted every 30 seconds on the basis of the video image is shown in Table 5, and the picture of the video footage after 115 seconds is shown as FIG. 2. FIG. 2A is an image of the case where distilled water was used, FIG. 2B is an image of the case where 2-phenylethanol was used, and FIG. 2C is an image of the case where benzyl alcohol was used.

[4] = system: Vespa analis insularis (Fabricius) worker; assay: Black ball nest disturbance, Experiment 1; format: in vivo
Procedure: The experiment was conducted with utilizing a nest of Vespa analis insularis (Fabricius) built under an awning of a private house in Iida-cho Takamatsu City on Sep. 9, 2015.
A black ball was hung on the tip of a fishing rod having a length of 11 m, and distilled water was sprayed on the entire surface of the black ball. While the surface of the nest was tapped with the tip of the fishing rod once every about 10 seconds, the worker's action against the black ball was taken and recorded with a video camera for 5 minutes. When the nest was hit, the black ball was in close proximity to the nest as the black ball was about to touch the nest, and when the nest was not hit, the black ball was kept still in the air about 50 cm away from the nest surface. The thus recorded video footage was replayed, and the number of worker which flew to and alighted on the hemisphere surface of the black ball for attack was counted. Similar experiments were conducted with respect to the black ball prepared by spraying benzyl alcohol on the entire surface of a new black ball as “Test liquid example 1” and the black ball prepared by spraying benzyl alcohol on the entire surface of the control example black ball on which alarm pheromone was adsorbed by the worker's attack as “Test liquid example 2”. In addition, a picture of the video footage 234 seconds after the start of the nest disturbance is shown as FIG. 3. FIG. 3A is an image of the control example that distilled water was used, FIG. 3B is an image of the Test liquid example 1, and FIG. 3C is an image of the Test liquid example 2.

Apis mellifera worker = details: in vivo
Procedure: The experiment involving a Apis mellifera worker which was sucking nectar from a flower of Abelia planted at a bank of Noda pond located at Fuseishi-cho, Takamatsu City, Kagawa Prefecture was conducted on Jul. 22 to 24, 2015.
With respect to the experimental condition, first, distilled water was sprayed once on the worker which was sucking nectar or moving from a flower to a flower by using a sprayer, and then the inventors observed the behavior for 30 seconds. Next, benzyl alcohol, 2-phenylethanol or benzyl acetate was sprayed once on the same worker by using the sprayer having the same mass and the same volume, and then the inventors observed the behavior up to 30 seconds. The test liquid was judged to be “effective” in the case where the Apis mellifera worker on which the test liquid was sprayed did different action than normal activity to visit a flower during the observation time.

**Q.** With OCc1ccccc1 [Benzyl alcohol, benzyl alcohol] as the compound, how does the “behavior of workers after spraying” value (Vespa mandarinia worker [1]) read?
**A.** Its value is “flew away from the sap bleeding part”.

**Q.** And the “Number of worker Effective” value (Vespa mandarinia worker [1])?
**A.** Its value is 10/10.

**Q.** And the “Number of worker No response” value (Vespa mandarinia worker [1])?
**A.** The value was 0/10.

**Q.** And the “number of worker on hemispherical surface of black ball” value (Vespa mandarinia worker [2]; 30 s after disturbance)?
**A.** The value was 0.

**Q.** And the “number of worker on hemispherical surface of black ball” value (Vespa mandarinia worker [2]; 60 s after disturbance)?
**A.** Its value is 0.

**Q.** And the “number of worker on hemispherical surface of black ball” value (Vespa mandarinia worker [2]; 90 s after disturbance)?
**A.** Its value is 0.

**Q.** And the “number of worker on hemispherical surface of black ball” value (Vespa mandarinia worker [2]; 120 s after disturbance)?
**A.** Its value is 0.

**Q.** And the “number of worker on hemispherical surface of black ball” value (Vespa mandarinia worker [2]; 150 s after disturbance)?
**A.** Its value is 0.

**Q.** What about the repellent effect (Vespa mandarinia worker [2]) of the same compound?
**A.** The repellent effect was “very strong”.

**Q.** And the “number of worker on black ball hemispherical surface” value ([3]; 30 s after disturbance)?
**A.** Its value is 0.

**Q.** What about the “number of worker on black ball hemispherical surface” value ([3]; 60 s after disturbance) of the same compound?
**A.** The value was 0.

**Q.** And the “number of worker on black ball hemispherical surface” value ([3]; 90 s after disturbance)?
**A.** Its value is 0.

**Q.** What about the “number of worker on black ball hemispherical surface” value ([3]; 120 s after disturbance) of the same compound?
**A.** Its value is 0.

**Q.** What about the “number of worker on black ball hemispherical surface” value ([3]; 150 s after disturbance) of the same compound?
**A.** The value was 0.

**Q.** And the “repellent effect and action to suppress the aggression” value [3]?
**A.** Its value is “strong equivalent to or higher than the repellent effect on Vespa mandarinia”.

**Q.** And the “number of worker alighted on hemisphere surface of black ball for attack” value (from here on “number of worker alighted”) ([4]; 30 s, benzyl alcohol on ball with adsorbed alarm pheromone)?
**A.** Its value is 0.

**Q.** And the “number of worker alighted” value ([4]; 30 s, benzyl alcohol on new black ball)?
**A.** The value was 0.

**Q.** And the “number of worker alighted” value ([4]; 60 s, benzyl alcohol on ball with adsorbed alarm pheromone)?
**A.** Its value is 1.

**Q.** And the “number of worker alighted” value ([4]; 60 s, benzyl alcohol on new black ball)?
**A.** Its value is 0.

**Q.** And the “number of worker alighted” value ([4]; 90 s, benzyl alcohol on ball with adsorbed alarm pheromone)?
**A.** Its value is 0.

**Q.** What about the “number of worker alighted” value ([4]; 90 s, benzyl alcohol on new black ball) of the same compound?
**A.** The value was 2.

**Q.** And the “number of worker alighted” value ([4]; 120 s, benzyl alcohol on ball with adsorbed alarm pheromone)?
**A.** The value was 0.

**Q.** What about the “number of worker alighted” value ([4]; 120 s, benzyl alcohol on new black ball) of the same compound?
**A.** The value was 1.

**Q.** And the “number of worker alighted” value ([4]; 150 s, benzyl alcohol on ball with adsorbed alarm pheromone)?
**A.** The value was 0.

**Q.** What about the “number of worker alighted” value ([4]; 150 s, benzyl alcohol on new black ball) of the same compound?
**A.** The value was 0.

**Q.** And the “number of worker alighted” value ([4]; 180 s, benzyl alcohol on ball with adsorbed alarm pheromone)?
**A.** Its value is 0.

**Q.** And the “number of worker alighted” value ([4]; 180 s, benzyl alcohol on new black ball)?
**A.** The value was 0.

**Q.** And the “number of worker alighted” value ([4]; 210 s, benzyl alcohol on ball with adsorbed alarm pheromone)?
**A.** Its value is 0.

**Q.** And the “number of worker alighted” value ([4]; 210 s, benzyl alcohol on new black ball)?
**A.** Its value is 0.

**Q.** What about the “number of worker alighted” value ([4]; 240 s, benzyl alcohol on ball with adsorbed alarm pheromone) of the same compound?
**A.** Its value is 0.

**Q.** What about the “number of worker alighted” value ([4]; 240 s, benzyl alcohol on new black ball) of the same compound?
**A.** The value was 0.

**Q.** What about the “number of worker alighted” value ([4]; 270 s, benzyl alcohol on ball with adsorbed alarm pheromone) of the same compound?
**A.** The value was 0.

**Q.** What about the “number of worker alighted” value ([4]; 270 s, benzyl alcohol on new black ball) of the same compound?
**A.** Its value is 0.

**Q.** What about the “number of worker alighted” value ([4]; 300 s, benzyl alcohol on ball with adsorbed alarm pheromone) of the same compound?
**A.** The value was 0.

**Q.** What about the “number of worker alighted” value ([4]; 300 s, benzyl alcohol on new black ball) of the same compound?
**A.** Its value is 0.

**Q.** What about the repellent effect ([4]; in vivo) of the same compound?
**A.** Its repellent effect is “strong repellent effect”.

**Q.** And the “Number of worker Effective” value (Apis mellifera worker)?
**A.** The value was 0/10.

**Q.** And the “Number of worker No response” value (Apis mellifera worker)?
**A.** Its value is 10/10.

**Q.** What about the “effect on behavior of / harm to honeybee” value (Apis mellifera worker) of the same compound?
**A.** The value was “does not effect on the behavior of an Apis mellifera worker”.

**Q.** With OCCc1ccccc1 [2-Phenylethanol, 2-phenylethanol] as the compound, how does the “behavior of workers after spraying” value (Vespa mandarinia worker [1]) read?
**A.** Its value is “flew away from the sap bleeding part”.

**Q.** What about the “Number of worker Effective” value (Vespa mandarinia worker [1]) of the same compound?
**A.** The value was 10/10.

**Q.** What about the “Number of worker No response” value (Vespa mandarinia worker [1]) of the same compound?
**A.** Its value is 0/10.

**Q.** What about the “number of worker on hemispherical surface of black ball” value (Vespa mandarinia worker [2]; 30 s after disturbance) of the same compound?
**A.** The value was 0.

**Q.** What about the “number of worker on hemispherical surface of black ball” value (Vespa mandarinia worker [2]; 60 s after disturbance) of the same compound?
**A.** Its value is 0.

**Q.** And the “number of worker on hemispherical surface of black ball” value (Vespa mandarinia worker [2]; 90 s after disturbance)?
**A.** The value was 0.

**Q.** What about the “number of worker on hemispherical surface of black ball” value (Vespa mandarinia worker [2]; 120 s after disturbance) of the same compound?
**A.** The value was 0.

**Q.** And the “number of worker on hemispherical surface of black ball” value (Vespa mandarinia worker [2]; 150 s after disturbance)?
**A.** Its value is 0.

**Q.** What about the repellent effect (Vespa mandarinia worker [2]) of the same compound?
**A.** The repellent effect was “very strong”.

**Q.** What about the “number of worker on black ball hemispherical surface” value ([3]; 30 s after disturbance) of the same compound?
**A.** The value was 1.

**Q.** What about the “number of worker on black ball hemispherical surface” value ([3]; 60 s after disturbance) of the same compound?
**A.** The value was 0.

**Q.** And the “number of worker on black ball hemispherical surface” value ([3]; 90 s after disturbance)?
**A.** Its value is 0.

**Q.** What about the “number of worker on black ball hemispherical surface” value ([3]; 120 s after disturbance) of the same compound?
**A.** Its value is 0.

**Q.** And the “number of worker on black ball hemispherical surface” value ([3]; 150 s after disturbance)?
**A.** The value was 0.

**Q.** What about the “repellent effect and action to suppress the aggression” value [3] of the same compound?
**A.** Its value is “strong equivalent to or higher than the repellent effect on Vespa mandarinia”.

**Q.** And the “Number of worker Effective” value (Apis mellifera worker)?
**A.** Its value is 0/10.

**Q.** What about the “Number of worker No response” value (Apis mellifera worker) of the same compound?
**A.** The value was 10/10.
